Reference: patent publication US6969731B1, “Protease inhibitors that overcome drug resistance” (The University of Illinois, Board of Trustees, priority 1999, dated 2005)
Several values for one entry are separate records, joined by “and”; a condition that tells them apart may be missing. Equal entries are not always repeated.

Assays:
Format in all cases: biochemical
[1] = target: T1, wild type HIV-1 protease (Human immunodeficiency virus type 1 group M subtype B, UniProt P04585); assay: Ki determination, wild-type HIV-1 protease; details: W.T. HIV-1 protease; with standard error
T1 construct: The active HIVPr is a homodimer of 99-residue monomers; made in house; host or cells: E. coli
Source text: (§1) The wild-type HIV-1 Pr was produced as recombinant enzyme in E. coli as described by Ido et al. ( 1991) J. Biol. Chem. 266:24359-24366.

[2] = test system: HIV-1 protease resistant mutant I15V; details: Ki,mut I15V / Ki wild-type
[3] = target: T2, HIV-1 protease resistant mutant I15V (Human immunodeficiency virus type 1 group M subtype B, UniProt P04585, I503V); details: I15V mutant; with standard error
T2 construct: The active HIVPr is a homodimer of 99-residue monomers; made in house

[4] = target: T3, HIV-1 protease resistant mutant L90M (Human immunodeficiency virus type 1 group M subtype B, UniProt P04585, L578M); details: L90M mutant; with standard error
T3 construct: The active HIVPr is a homodimer of 99-residue monomers; made in house

[5] = test system: HIV-1 protease resistant mutant L90M; details: Ki,mut L90M / Ki wild-type
[6] = test system: HIV-1 protease resistant mutant I64V; details: Ki,mut I64V / Ki wild-type
[7] = target: T4, HIV-1 protease resistant mutant I64V (Human immunodeficiency virus type 1 group M subtype B, UniProt P04585, I552V); details: I64V mutant; with standard error
T4 construct: The active HIVPr is a homodimer of 99-residue monomers; made in house

[8] = test system: HIV-1 protease resistant mutant V82A; details: Ki,mut V82A / Ki wild-type
[9] = target: T5, HIV-1 protease resistant mutant V82A (Human immunodeficiency virus type 1 group M subtype B, UniProt P04585, V570A); details: V82A mutant; with standard error
T5 construct: The active HIVPr is a homodimer of 99-residue monomers; made in house

[10] = target: T6, HIV-1 protease resistant mutant L10I (Human immunodeficiency virus type 1 group M subtype B, UniProt P04585, L498I); details: L10I mutant; with standard error
T6 construct: The active HIVPr is a homodimer of 99-residue monomers; made in house

[11] = test system: HIV-1 protease resistant mutant L10I; details: Ki,mut L10I / Ki wild-type
[12] = test system: HIV-1 protease resistant mutant K20R; details: Ki,mut K20R / Ki wild-type
[13] = target: T7, HIV-1 protease resistant mutant K20R (Human immunodeficiency virus type 1 group M subtype B, UniProt P04585, K508R); details: K20R mutant; with standard error
T7 construct: The active HIVPr is a homodimer of 99-residue monomers; made in house

[14] = test system: HIV-1 protease resistant mutant M46I; details: Ki,mut M46I / Ki wild-type
[15] = target: T8, HIV-1 protease resistant mutant M46I (Human immunodeficiency virus type 1 group M subtype B, UniProt P04585, M534I); details: M46I mutant; with standard error
T8 construct: The active HIVPr is a homodimer of 99-residue monomers; made in house

[16] = target: T9, HIV-1 protease resistant mutant I84V (Human immunodeficiency virus type 1 group M subtype B, UniProt P04585, I572V); details: I84V mutant; with standard error
T9 construct: The active HIVPr is a homodimer of 99-residue monomers; made in house

[17] = test system: HIV-1 protease resistant mutant I84V; details: Ki,mut I84V / Ki wild-type
[18] = test system: HIV-1 protease resistant mutant G48V; details: Ki,mut G48V / Ki wild-type
[19] = target: T10, HIV-1 protease resistant mutant G48V (Human immunodeficiency virus type 1 group M subtype B, UniProt P04585, G536V); details: G48V mutant; with standard error
T10 construct: The active HIVPr is a homodimer of 99-residue monomers; made in house

[20] = target: T11, HIV-1 protease resistant mutant I93L (Human immunodeficiency virus type 1 group M subtype B, UniProt P04585, I581L); assay: Ki determination, HIV-1 protease mutant I93L
T11 construct: The active HIVPr is a homodimer of 99-residue monomers; made in house
Source text: as §1

CC(C)CN(CC(O)C(Cc1ccccc1)NC(=O)C(Cc1ccccc1)CC(O)C(Cc1ccccc1)NC(=O)OC1CCCO1)S(=O)(=O)c1cccc(O)c1 [UIC-98-056, (1′S,2R,2′R,3S,5′S)-3-[N-[2′-Benzyl-5′-[N-(2-tetrahydrofuranyloxycarbonyl]amino-4′-hydroxy-6′-phenyl-1′-oxo]hexyl]amino-2-hydroxy-1-[N-isobutylamino-N′[3-hydroxybenzene)sulfonamido]]-4-[phenylbutane]
Ki [1]: 6.2 ± 0.8 nM | fold of Ki increase from that of the wild-type [2]: 0.2 fold | Ki [3]: 1.22 ± 0.14 nM | Ki [4]: 2.1 ± 0.5 nM | fold of Ki increase from that of the wild-type [5]: 0.3 fold | fold of Ki increase from that of the wild-type [6]: 1.0 fold | Ki [7]: 6.24 ± 1.52 nM | fold of Ki increase from that of the wild-type [8]: 1.0 fold | Ki [9]: 6.23 ± 1.2 nM | Ki [10]: 1.03 ± 0.25 nM | fold of Ki increase from that of the wild-type [11]: 0.2 fold | fold of Ki increase from that of the wild-type [12]: 0.5 fold | Ki [13]: 2.9 ± 0.74 nM | fold of Ki increase from that of the wild-type [14]: 0.5 fold | Ki [15]: 3.16 ± 0.81 nM | Ki [16]: 55.3 ± 0.46 nM | fold of Ki increase from that of the wild-type [17]: 9 fold and 8.9 fold | fold of Ki increase from that of the wild-type [18]: 1.4 fold | Ki [19]: 8.7 ± 1.4 nM | Ki ([20]; I93L mutant, with standard error): 3.05 ± 0.64 nM | fold of Ki increase from that of the wild-type ([20]; Ki,mut I93L / Ki wild-type): 0.5 fold
